Measured values: paper PMC8187479, “Sugar phosphate activation of the stress sensor eIF2B” (Nature Communications, 2021)
Values joined by “and” are separate entries in the source; they are usually repeats but may differ in a detail not shown here. Equal entries are not always repeated.

How the values were obtained:
[1] = molecular target: T1, eIF2Bα (Homo sapiens, UniProt Q14232); experiment: MIDAS (mass spectrometry integrated with equilibrium dialysis) metabolite binding screen
T1 construct: made in house; host or cells: E. coli BL21(DE3)
T1 sequence (Q14232 1-305): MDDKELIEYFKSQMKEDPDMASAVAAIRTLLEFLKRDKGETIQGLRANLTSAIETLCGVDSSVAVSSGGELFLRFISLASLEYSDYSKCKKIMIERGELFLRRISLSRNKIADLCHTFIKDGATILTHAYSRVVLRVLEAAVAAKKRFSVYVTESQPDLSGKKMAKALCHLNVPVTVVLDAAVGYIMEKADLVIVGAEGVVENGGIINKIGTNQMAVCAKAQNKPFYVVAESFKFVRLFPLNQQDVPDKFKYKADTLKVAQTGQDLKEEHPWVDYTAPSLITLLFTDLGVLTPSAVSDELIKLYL
Summary of the method: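 Hits called at Storey q < 0.1 on z-scores of PCA-corrected log2 fold change between protein and metabolite chambers, quantified by FIA-MS in triplicate.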

[2] = molecular target: T2, eIF2B (Homo sapiens, UniProt P49770+Q14232+Q9UI10); experiment: eIF2B GEF activity assay, unbiased metabolite screen (Bodipy-FL-GDP release); assay type: biochemical; settings: 10 μM metabolite
T2 construct: made in house; host or cells: eIF2Bα: E. coli BL21(DE3)
Protocol: (§1) Bodipy-FL-GDP-loaded eIF2 was used as a substrate for recombinant eIF2B. The assay was performed in 384-well plates. Reactions were read on a SpectraMax i3x plate reader (Molecular Devices) using the instrument’s Softmax Pro software with the following parameters: plate temperature = 25 °C; excitation wavelength = 485 nm (15 nm width); emission wavelength = 535 nm (25 nm width); read duration = 30 min at 45 s intervals. Data were analyzed in Prism. GDP release half-lives were calculated by fitting single-exponential decay curves.
For unbiased screening, MIDAS metabolite libraries at 10 mM stock concentration were dispensed into wells of the assay plate using an Echo Acoustic Liquid Handler (Labcyte). […] A single well was run for each metabolite. […] For targeted experiments with HEK293T lysates, the following conditions were used: 50 nM Bodipy-FL-GDP-loaded eIF2, 0.1 mM GDP, 1 mg/ml BSA, 0.1 or 0.3 mg/ml lysates.

[3] = molecular target: T1, eIF2Bα; experiment: Differential scanning fluorimetry (Protein Thermal Shift), eIF2Bα Tm; assay type: binding; settings: individual replicates Rep 1-4, control without metabolite about 64.1
Protocol: The effect of metabolite binding on eIF2Bα Tm was assessed using the Protein Thermal Shift assay (Thermo Fisher), following manufacturer’s instructions. Briefly, reaction conditions for each 20 μL reaction were: 1.1 μg (1.5 μM) of eIF2Bα, 5 μl Thermal Shift buffer, 1X Thermal Shift dye, and metabolites in dose response. Reactions were run in 384-well format on a QuantStudio 6 Flex instrument (Thermo Fisher). The resulting melt curves were analyzed using Protein Thermal Shift Software, and eIF2Bα Tms for each condition were calculated by fitting to the Boltzmann function.

[4] = molecular target: T1, eIF2Bα; experiment: Isothermal titration calorimetry, wild-type eIF2Bα; assay type: binding; settings: ITC, wild-type eIF2Bα
Protocol: Interactions between recombinant protein and sugar phosphates were conducted with a MicroCal PEAQ-ITC (Malvern Panalytical Inc.). Experiments were performed in 25 mM HEPES, 150 mM NaCl, pH 7.5 at 20 °C. The sugar phosphate concentration in the syringe was 1 mM or 1.5 mM, and ~3.5 μL aliquots were injected into cells containing 300 μL eIF2Bα or eIF2B(βδγε) at a concentration of 20–30 μM. The final titration curves were fitted using MicroCal ITC data analysis software, assuming a single binding site per monomer.

[5] = molecular target: T2, eIF2B; experiment: eIF2B GEF activity assay, targeted, recombinant wild-type eIF2B; assay type: biochemical; settings: 500 nM ISRIB, 200 μM F6P, 200 μM G1P
Protocol: as §1
For unbiased screening, MIDAS metabolite libraries at 10 mM stock concentration were dispensed into wells of the assay plate using an Echo Acoustic Liquid Handler (Labcyte). In a final assay volume of 10 μL/well, the following conditions were kept constant: 25 nM Bodipy-FL-GDP-loaded eIF2, 4 nM phospho-eIF2, 0.1 mM GDP, 1 mg/mL BSA, 1 nM eIF2B, 10 μM metabolite. A single well was run for each metabolite. For targeted experiments with recombinant wild-type and mutant eIF2Bα, the following conditions were used: 50 nM Bodipy-FL-GDP-loaded eIF2, 0.1 mM GDP, 1 mg/ml BSA, 20 nM eIF2B. For targeted experiments with HEK293T lysates, the following conditions were used: 50 nM Bodipy-FL-GDP-loaded eIF2, 0.1 mM GDP, 1 mg/ml BSA, 0.1 or 0.3 mg/ml lysates.

[6] = molecular target: T3, eIF2B decamer in WT HEK293T lysate (Homo sapiens, UniProt P49770+Q14232+Q9UI10); experiment: Sucrose gradient centrifugation, eIF2B complex assembly, WT HEK293T lysate; assay type: biochemical; settings: 400 mM KCl, 5–20% sucrose gradient
T3 construct: endogenous in cells; host or cells: HEK293T (wild type) lysate
Protocol: WT or eIF2Bα mutant HEK293T cells were harvested and lysed in 50 mM HEPES, 400 mM KCl, 1 mM DTT, 4 mM Mg(OAc)2, pH 7.5 + 0.5% Triton-X-100 + EDTA-free protease inhibitor cocktail (Roche) on ice for 30 min. Lysates were cleared by centrifugation at 48,000 × g, 4 °C for 30 min. 100 μL of each cleared lysate was loaded onto a 5–20% sucrose gradient prepared in a 13 × 51 mm ultracentrifuge tube using a Gradient Station (Biocomp) and centrifuged in a SW55 Ti rotor at 152,000 × g, 4 °C for 12 h. After centrifugation, 24 × 200 μL fractions were manually collected from the top to bottom of each gradient. Each fraction was subjected to methanol/chloroform precipitation and SDS-PAGE followed by Western Blot with the indicated antibodies. Blots were imaged on a ChemiDoc MP (Bio-Rad), and band intensities were quantified using the instrument’s Image Lab software. Each value was then divided by total intensity obtained across all fractions to determine percent enrichment of each subunit in each fraction.

T2 sequence (P49770 whole entry, one chain of several): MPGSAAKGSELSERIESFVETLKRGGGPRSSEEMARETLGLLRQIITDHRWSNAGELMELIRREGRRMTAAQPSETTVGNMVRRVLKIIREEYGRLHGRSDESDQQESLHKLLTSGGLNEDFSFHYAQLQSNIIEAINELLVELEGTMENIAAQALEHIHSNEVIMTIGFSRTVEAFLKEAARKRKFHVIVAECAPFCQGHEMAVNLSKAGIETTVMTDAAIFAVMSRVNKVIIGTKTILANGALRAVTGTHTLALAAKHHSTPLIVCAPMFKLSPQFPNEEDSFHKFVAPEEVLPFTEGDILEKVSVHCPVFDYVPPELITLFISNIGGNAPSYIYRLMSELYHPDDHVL
T2 sequence (Q9UI10 whole entry, one chain of several): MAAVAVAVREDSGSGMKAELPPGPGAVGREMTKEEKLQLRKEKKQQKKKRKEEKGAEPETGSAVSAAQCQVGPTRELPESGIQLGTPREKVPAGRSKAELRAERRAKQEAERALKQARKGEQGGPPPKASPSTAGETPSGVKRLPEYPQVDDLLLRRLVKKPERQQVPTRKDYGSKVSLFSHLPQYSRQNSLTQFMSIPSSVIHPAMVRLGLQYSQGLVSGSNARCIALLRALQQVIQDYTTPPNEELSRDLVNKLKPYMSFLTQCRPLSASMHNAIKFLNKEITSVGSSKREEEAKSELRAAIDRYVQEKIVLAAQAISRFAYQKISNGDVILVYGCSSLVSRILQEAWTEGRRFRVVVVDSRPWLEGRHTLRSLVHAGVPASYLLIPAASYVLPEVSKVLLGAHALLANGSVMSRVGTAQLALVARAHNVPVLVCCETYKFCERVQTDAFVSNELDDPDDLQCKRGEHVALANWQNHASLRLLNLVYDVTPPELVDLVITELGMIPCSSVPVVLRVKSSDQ
T2 sequence (Q9NR50 whole entry partner, one chain of several): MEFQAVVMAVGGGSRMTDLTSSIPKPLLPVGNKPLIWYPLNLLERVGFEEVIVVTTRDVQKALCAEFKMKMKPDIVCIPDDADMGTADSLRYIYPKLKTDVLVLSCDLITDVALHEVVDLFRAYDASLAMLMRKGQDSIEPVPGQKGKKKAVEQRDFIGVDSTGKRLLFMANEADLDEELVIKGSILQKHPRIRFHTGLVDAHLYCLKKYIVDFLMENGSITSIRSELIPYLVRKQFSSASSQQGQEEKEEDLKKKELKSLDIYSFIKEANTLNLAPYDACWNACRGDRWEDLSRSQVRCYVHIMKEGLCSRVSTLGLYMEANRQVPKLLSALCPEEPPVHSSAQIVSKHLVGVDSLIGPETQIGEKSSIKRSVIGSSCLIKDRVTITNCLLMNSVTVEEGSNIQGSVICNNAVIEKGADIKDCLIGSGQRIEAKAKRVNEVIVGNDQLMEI
T2 sequence (Q13144 whole entry partner, one chain of several): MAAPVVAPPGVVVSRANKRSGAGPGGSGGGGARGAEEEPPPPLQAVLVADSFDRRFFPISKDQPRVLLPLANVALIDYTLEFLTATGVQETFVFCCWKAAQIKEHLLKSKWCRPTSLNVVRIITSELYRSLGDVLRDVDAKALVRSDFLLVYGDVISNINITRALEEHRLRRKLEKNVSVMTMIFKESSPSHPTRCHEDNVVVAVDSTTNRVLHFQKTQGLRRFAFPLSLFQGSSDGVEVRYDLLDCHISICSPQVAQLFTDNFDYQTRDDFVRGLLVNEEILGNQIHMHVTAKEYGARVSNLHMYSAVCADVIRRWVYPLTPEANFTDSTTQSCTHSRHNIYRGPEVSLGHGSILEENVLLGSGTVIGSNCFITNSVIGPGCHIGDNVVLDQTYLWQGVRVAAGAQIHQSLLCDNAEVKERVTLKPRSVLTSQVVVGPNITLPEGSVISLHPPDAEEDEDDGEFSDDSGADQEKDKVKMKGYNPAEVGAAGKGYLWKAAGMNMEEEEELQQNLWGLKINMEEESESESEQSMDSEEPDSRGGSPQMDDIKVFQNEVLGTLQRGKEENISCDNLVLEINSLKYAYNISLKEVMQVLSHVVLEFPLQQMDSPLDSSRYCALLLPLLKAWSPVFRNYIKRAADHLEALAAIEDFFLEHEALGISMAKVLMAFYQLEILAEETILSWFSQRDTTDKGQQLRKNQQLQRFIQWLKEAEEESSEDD
T3 sequence (P49770 whole entry, one chain of several): as the sequence (P49770 whole entry, one chain of several) above
T3 sequence (Q9UI10 whole entry, one chain of several): as the sequence (Q9UI10 whole entry, one chain of several) above
T3 sequence (Q9NR50 whole entry partner, one chain of several): as the sequence (Q9NR50 whole entry partner, one chain of several) above
T3 sequence (Q13144 whole entry partner, one chain of several): as the sequence (Q13144 whole entry partner, one chain of several) above

Row | log2(corrected fold change) ([1]; MIDAS metabolite binding screen with eIF2Bα, sheet "eIF2Ba") | effect on eIF2B GEF activity in the screen [2] | MIDAS result (enrichment in the protein chamber / hit status) ([1]; eIF2Bα2, 50 μM per metabolite pool, 40 h dialysis at 4 °C) | SMILES | Tm of eIF2Bα ([3]; 0.33 mM metabolite) | Tm of eIF2Bα ([3]; 1 mM metabolite) | Tm of eIF2Bα ([3]; 3.3 mM metabolite) | Tm of eIF2Bα ([3]; 10 mM metabolite) | interaction with eIF2Bα [4] | effect on GEF activity of recombinant wild-type eIF2B [5] | eIF2B decamer formation (migration of eIF2Bα and eIF2Bδ) [6] | Tm of eIF2Bα ([3]; 5 mM metabolite)
1 | -0.09804 | a hit in this functional assay screen |  | Nc1ncnc2c1ncn2[C@@H]1O[C@H](COP(=O)(O)OP(=O)(O)O)[C@@H](O)[C@H]1O [ADP, Adenosine diphosphate] |  |  |  |  |  |  |  | 
2 |  |  |  | O=C(COP(=O)(O)O)[C@@H](O)[C@H](O)[C@H](O)COP(=O)(O)O [Fructose-1,6-bisphosphate] | 64.6451 °C and 64.2202 °C and 65.137 °C and 65.0552 °C | 65.6845 °C and 64.643 °C and 66.191 °C and 66.0945 °C | 65.4601 °C and 64.9088 °C and 65.6023 °C and 65.9064 °C | 67.1254 °C and 66.1581 °C and 67.3047 °C and 67.21 °C |  |  |  | 
3 |  |  |  | O=P(O)(O)O[C@H]1O[C@H](CO)[C@@H](O)[C@H](O)[C@H]1O [G1P, glucose-1-phosphate] | 64.9734 °C and 64.7812 °C and 64.8751 °C and 63.7923 °C | 65.6948 °C and 65.7116 °C and 65.1967 °C and 64.0445 °C | 65.6535 °C and 64.9673 °C and 65.2055 °C and 64.2208 °C | 65.8625 °C and 65.8106 °C and 65.498 °C and 64.4559 °C | did not interact | an inactive metabolite in the enzymatic assay | did not affect the migration of eIF2B subunits | 
4 |  |  | most enriched metabolite identified | N[C@@H](Cc1ccc(O)cc1)C(=O)O [L-tyrosine] | 64.527 °C and 64.3045 °C and 63.9825 °C and 63.5986 °C | 65.9465 °C and 65.8614 °C and 65.2637 °C and 64.606 °C |  |  |  |  |  | 66.2946 °C and 66.2026 °C and 66.1461 °C and 65.4309 °C
